Literature values, collected in paper PMC7395068, “The evolution of strategies to minimise the risk of human drug-induced liver injury (DILI) in drug discovery and development” (Archives of Toxicology, 2020).
Read-outs that look alike come from different tables or passages of the source.

Experiments:
[1] = ref Chen 2016; cited from earlier work
[2] = system: primary human hepatocytes, NIH3T3 fibroblasts, BSEP, CYP3A4; conditions: cited from earlier work
[3] = system: HepG2 cells; conditions: cited from earlier work; for Cluser analysis / Structural based (HCI): In vitro Assay, ref Persson 2013
[4] = system: THLE or HepG2 cells, isolated mitochondria, BSEP; conditions: cited from earlier work
[5] = system: HepG2 C3A spheroid, BSEP, Glu/Gal in HepG2 cells, bioactivation; conditions: cited from earlier work
[6] = cited from earlier work
[7] = system: THLE-Null and THLE-3A4 cells; conditions: In vitro Assay; ref Gustafsson 2014; cited from earlier work
[8] = system: human hepatocytes; conditions: cited from earlier work
[9] = system: HepG2 cells, primary human hepatocytes; conditions: cited from earlier work
[10] = system: rBsep; conditions: In vitro Assay; ref Dawson 2012; cited from earlier work
[11] = system: PHH; conditions: In vitro Assay; ref Proctor 2017; cited from earlier work
[12] = system: hLiMTs; conditions: In vitro Assay; ref Proctor 2017; cited from earlier work
[13] = system: HepG2 cells; conditions: In vitro Assay; ref O'Brien 2006; cited from earlier work
[14] = system: PHH spheroids; conditions: In vitro Assay; ref Vorrink 2018; cited from earlier work
[15] = In vitro Assay, ref Schadt 2015
[16] = In vitro Assay, ref Williams 2019
[17] = In vitro Assay, ref Garside 2014

Nc1c(CC(=O)O)cccc1C(=O)c1ccc(Br)cc1 [bromfenac, reference compound]
vMost-DILI-Concern: DILI severity category [1]
-VE: Cellular toxicity (3T3 cells) [2, 15] | Combined Assay [2, 15] | GSH adduct HML [2, 15] | Hepatocyte cellular toxicity [2, 15] | MitoTox 3T3 [2, 15] | TDI CYP3A4 [2, 15] | hBSEP inhibition [2, 15] | Cluser analysis [3] | Structural based (HCI) [3] | THLE-Null [7] | THLE-Null/3A4 [7]
+VE: DILI +VE (5-8), DILI -VE (-4) [1] | Partition Hybrid HRM Score ([4]; In vitro Assay, ref Aleo 2019) | Ro2 Hybrid HRM Score ([4]; In vitro Assay, ref Aleo 2019) | Bayesian Machine Learning [5, 16] | In vivo DILI ([6]; […]) | In vivo DILI ([6]; ref Aleo 2019) | In vivo DILI ([6]; ref Gustafsson 2014) | In vivo DILI ([6]; ref Persson 2013) | In vivo DILI ([6]; ref Schadt 2015) | In vivo DILI ([6]; ref Williams 2019)
negative: DILI in vitro assay prediction, Persson (2013) ([3]; Structural based (HCI), HepG2, ref Persson et al. 2013)

CN(C)CCCN1c2ccccc2CCc2ccc(Cl)cc21 [clomipramine]
-VE: Structural based (HCI) ([8]; In vitro Assay, ref Xu 2008)
+VE: Bayesian Machine Learning [5, 16] | Cluster 1-6 +VE Assay [9, 17]

N[C@@H]1CON=C1O [cycloserine]
-VE: Bayesian Machine Learning [5, 16] | THLE-Null [7] | Inhibition of rBsep cutoff<1& cmax u>.2 [10] | Inhibition of rBsep cutoff<3 [10]

Cc1onc(-c2c(F)cccc2Cl)c1C(=O)N[C@@H]1C(=O)N2[C@@H]1SC(C)(C)[C@@H]2C(=O)O [flucloxacillin]
+VE (IC50 threshold of 100 µM): PHH ATP <100uM [11]
-VE: hLiMTs ATP <100uM [12] | THLE-Null [7] | THLE-Null/3A4 [7] | Inhibition of rBsep cutoff<1& cmax u>.2 [10] | Inhibition of rBsep cutoff<3 [10]
+VE: Bayesian Machine Learning [5, 16] | In vivo DILI ([6]; ref Dawson 2012) | In vivo DILI ([6]; ref Gustafsson 2014) | In vivo DILI ([6]; ref Proctor 2017) | In vivo DILI ([6]; ref Williams 2019)

CC(C)Cc1ccc(CC(=O)O)cc1 [ibufenac]
+VE: DILI +VE (5-8), DILI -VE (-4) [1] | Combined Assay [2, 15] | GSH adduct HML [2, 15] | Bayesian Machine Learning [5, 16] | In vivo DILI ([6]; ref Garside 2014) | In vivo DILI ([6]; ref Schadt 2015) | In vivo DILI ([6]; ref Williams 2019) | Cluster 1-6 +VE Assay [9, 17]
-VE: Cellular toxicity (3T3 cells) [2, 15] | Hepatocyte cellular toxicity [2, 15] | MitoTox 3T3 [2, 15] | TDI CYP3A4 [2, 15] | hBSEP inhibition [2, 15]
vMost-DILI-Concern: DILI severity category [1]

CCC(C)n1ncn(-c2ccc(N3CCN(c4ccc(OCC5COC(Cn6cncn6)(c6ccc(Cl)cc6Cl)O5)cc4)CC3)cc2)c1=O (centres unmarked) [itraconazole]
vMost-DILI-Concern: DILI severity category [1]
+VE (IC50 threshold of 100 µM): hLiMTs ATP <100uM [12]
+VE: DILI +VE (5-8), DILI -VE (-4) [1] | Combined Assay [2, 15] | MitoTox 3T3 [2, 15] | Structural based (HCI) [13] | Cluser analysis [3] | Structural based (HCI) [3] | Bayesian Machine Learning [5, 16] | In vivo DILI ([6]; ref O'Brien 2006) | In vivo DILI ([6]; ref Persson 2013) | In vivo DILI ([6]; ref Proctor 2017) | In vivo DILI ([6]; ref Schadt 2015) | In vivo DILI ([6]; ref Williams 2019)
-VE: Cellular toxicity (3T3 cells) [2, 15] | GSH adduct HML [2, 15] | Hepatocyte cellular toxicity [2, 15] | TDI CYP3A4 [2, 15] | hBSEP inhibition [2, 15] | PHH ATP <100uM [11]

COC(=O)C1=C(C)NC(C)=C(C(=O)OCCN(C)Cc2ccccc2)C1c1cccc([N+](=O)[O-])c1 (centres unmarked) [nicardipine]
-VE: hLiMTs ATP <20 x Cmax [14] | Bayesian Machine Learning [5, 16]

O=c1[nH]c2ccccc2n1C1CCN(CCCC(c2ccc(F)cc2)c2ccc(F)cc2)CC1 [pimozide]
vNo-DILI-Concern: DILI severity category [1]
+VE: Bayesian Machine Learning ([5]; ref Williams 2019) | In vivo DILI ([6]; ref Proctor 2017) | In vivo DILI ([6]; ref Williams 2019)
-VE: DILI +VE (5-8), DILI -VE (-4) [1] | Structural based (HCI) [13] | PHH ATP <100uM [11] | In vivo DILI ([6]; ref O'Brien 2006)
+VE (IC50 threshold of 100 µM): hLiMTs ATP <100uM [12]

Cc1c(C(=O)NN2CCCCC2)nn(-c2ccc(Cl)cc2Cl)c1-c1ccc(Cl)cc1 [rimonabant]
-VE: In vivo DILI ([6]; ref Gustafsson 2014) | In vivo DILI ([6]; ref Williams 2019)
+VE: Bayesian Machine Learning ([5]; ref Williams 2019) | THLE-Null [7] | THLE-Null/3A4 [7]

CC(C(=O)O)c1ccc(C(=O)c2cccs2)cc1 (centres unmarked) [suprofen]
-VE: THLE-Null [7] | THLE-Null/3A4 [7] | Cluster 1-6 +VE Assay [9, 17]
+VE: Bayesian Machine Learning ([5]; ref Williams 2019) | In vivo DILI ([6]; ref Garside 2014) | In vivo DILI ([6]; ref Gustafsson 2014) | In vivo DILI ([6]; ref Williams 2019)

O=C(O)COc1ccc(C(=O)c2cccs2)c(Cl)c1Cl [tienilic acid]
vMost-DILI-Concern: DILI severity category [1]
-VE: PHH ATP <100uM [11] | hLiMTs ATP <100uM [12]
+VE: DILI +VE (5-8), DILI -VE (-4) [1] | Bayesian Machine Learning [5, 16] | In vivo DILI ([6]; […]) | In vivo DILI ([6]; ref Garside 2014) | In vivo DILI ([6]; ref Proctor 2017) | In vivo DILI ([6]; ref Williams 2019) | Cluster 1-6 +VE Assay [9, 17]

Cc1ccc(C(=O)c2ccc(CC(=O)O)n2C)cc1 [tolmetin]
+VE: DILI +VE (5-8), DILI -VE (-4) [1] | Structural based (HCI) ([8]; In vitro Assay, ref Xu 2008) | Bayesian Machine Learning [5, 16] | In vivo DILI ([6]; ref Garside 2014) | In vivo DILI ([6]; ref Gustafsson 2014) | In vivo DILI ([6]; ref Williams 2019) | In vivo DILI ([6]; ref Xu 2008) | Cluster 1-6 +VE Assay [9, 17]
-VE: THLE-Null [7] | THLE-Null/3A4 [7]
vLess-DILI-Concern: DILI severity category [1]

CC(=O)CC(c1ccccc1)c1c(O)c2ccccc2oc1=O (centres unmarked) [warfarin]
-VE: Cellular toxicity (3T3 cells) [2] | Combined Assay [2] | GSH adduct HML [2] | Hepatocyte cellular toxicity [2] | MitoTox 3T3 [2] | TDI CYP3A4 [2] | hBSEP inhibition [2] | Structural based (HCI) [8] | Ro2 Hybrid HRM Score [4] | Cluster 1-6 +VE Assay [9]
+VE: Partition Hybrid HRM Score [4] | Bayesian Machine Learning [5]

Cc1cc(CC(=O)O)n(C)c1C(=O)c1ccc(Cl)cc1 [zomepirac]
+VE: Combined Assay [2, 15] | GSH adduct HML [2, 15] | Structural based (HCI) [13] | Bayesian Machine Learning [5, 16] | In vivo DILI ([6]; […]) | In vivo DILI ([6]; ref Schadt 2015)
-VE: Cellular toxicity (3T3 cells) [2, 15] | Hepatocyte cellular toxicity [2, 15] | MitoTox 3T3 [2, 15] | TDI CYP3A4 [2, 15] | hBSEP inhibition [2, 15] | Structural based (HCI) ([8]; In vitro Assay, ref Xu 2008) | PHH ATP <100uM [11] | hLiMTs ATP <100uM [12] | In vivo DILI ([6]; ref Gustafsson 2014) | In vivo DILI ([6]; ref O'Brien 2006) | In vivo DILI ([6]; ref Proctor 2017) | In vivo DILI ([6]; ref Williams 2019) | In vivo DILI ([6]; ref Xu 2008) | THLE-Null [7] | THLE-Null/3A4 [7]
